Drawing on patent publication US20240082296A1, “TREATMENT OF MUSCLE ATROPHY USING DEXTRAN SULFATE” (TX MEDIC AB, priority 2020, published 2024), this text covers circulating HGF, peak for 1 substance.

In the assay the test system is hepatocyte growth factor (HGF). Nature of the assay: circulating HGF after dextran sulfate injection in ALS patients (Example 2). The assay is classed as in vivo, human. Particulars: peak at 2.5 hours after injection; before 820±581; p<0.001. The method, then:
A clinical trial in the form of a Phase IIa, single-center, open label, single-arm study where the safety, tolerability and possible efficacy of subcutaneously administered dextran sulfate was evaluated in patients with ALS of intermediate progression rate. The clinical trial was conducted at the Sahlgrenska University Hospital, Gothenburg, Sweden and was overseen and approved by the Ethics Committee of the University of Gothenburg and by the Swedish Medical Products Agency.
Dextran sulfate (Tikomed AB, Viken, Sweden, WO 2016/076780) was administered at 1 mg/kg by […] subcutaneous injection once a week for five weeks to 13 human patients suffering from ALS.
Blood samples were drawn at defined study intervals by a venous catheter into vacutainer tubes. Laboratory analyses of blood plasma were performed immediately after collection by the Clinical Chemistry Laboratory at the Sahlgrenska University Hospital.
This indicates the potential for direct myogenic, as well as indirect neurotrophic, HGF-mediated effects on muscle atrophy after dextran sulfate administration.

In turn, dextran sulfate gave a circulating HGF, peak of 37.9 ± 14.2 ng/mL.
